In patent US20080161247A1, “Synergistic composition for modulating activity of substrate analogs for NAD+, NADP+, NADH or NADPH dependent enzymes and process thereof” (priority 2006, published 2008):
Read-outs that look alike come from different tables or passages of the source.

Columns and labels:
[1] = biological target: T1, Plasmodium falciparum enoyl-Acyl carrier protein (ACP) reductase (PfENR) (Plasmodium falciparum, UniProt Q9BH77); assay: biochemical; conditions: for Ki: Dixon plot
T1 sequence (Q9BH77 22-432): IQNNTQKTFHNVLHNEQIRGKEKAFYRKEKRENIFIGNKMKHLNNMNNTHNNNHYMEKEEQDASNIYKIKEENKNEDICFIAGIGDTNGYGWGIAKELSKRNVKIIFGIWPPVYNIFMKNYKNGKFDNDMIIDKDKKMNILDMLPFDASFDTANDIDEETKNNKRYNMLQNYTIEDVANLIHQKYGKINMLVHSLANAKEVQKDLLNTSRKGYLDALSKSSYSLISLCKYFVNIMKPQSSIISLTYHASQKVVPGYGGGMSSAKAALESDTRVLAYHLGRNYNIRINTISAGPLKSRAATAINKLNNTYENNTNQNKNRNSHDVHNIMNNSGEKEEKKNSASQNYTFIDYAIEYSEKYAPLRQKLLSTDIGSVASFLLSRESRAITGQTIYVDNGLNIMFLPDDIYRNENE
Procedure: Enzyme assays and inhibition studies were performed on a UV-Vis spectrophotometer (Jasco) at 25° C. in 20 mM Tris/HCl pH 7.4 containing 150 mM NaCl [13, 14]. The standard reaction mixture of 100 μl contained 200 μM crotonoyl-CoA, 100 μM NADH and 30 nM PfENR. All the inhibitors were dissolved in DMSO. 1% V/V DMSO was used in the standard reaction mixture. The reaction proceeds by reduction of crotonoyl-CoA to butyl-CoA with the oxidation of NADH to NAD^+ which is monitored at 340 nm (□∈^M340=6220 M−1 cm−1).
IC50 values of the tea catechins and polyphenolic compounds for PfENR were determined by plotting the percent inhibition of PfENR at various concentrations of inhibitory compounds. […] The percent activity thus calculated was plotted against log of concentration of respective catechins. The data was analyzed by nonlinear regression method using sigmoidal model and IC50 values for each catechin was calculated from the sigmoidal curve.
The sigmoidal curve indicates the best fit for the data.
Ki of individual catechins with respect to NADH and crotonoyl-CoA were determined in separate experiments. […] All the data were analyzed by Dixon plot [8].
All the data of individual experiments were repeated thrice and the mean value was taken for data analysis. The Ki values were determined for each experiment from the X-intercept of the Dixon plot [8].
The data were plotted using the following Dixon equations for competitive and uncompetitive kinetics, respectively.

[2] = test system: P. falciparum culture; assay: Growth inhibition assay, [3H] hypoxanthine incorporation; assay type: cell-based, Plasmodium falciparum
Source text: Culture media with or without inhibitors was changed daily. Parasites were synchronized at the ring stage with 5% D-sorbitol for all and the cultures were pooled at ring or trophozoite stage with 12-15% parasitemia. Free parasites were released from the red blood cells with 0.15% saponin.
The growth of P. falciparum was quantified by measuring the incorporation of [^3H] hypoxanthine.

[3] = biological target: T2, PfENR (Plasmodium falciparum, UniProt Q9BH77); assay type: biochemical; conditions: triclosan with PfENR in presence of the catechin
T2 construct: The overexpression of PfENR was carried out [22]; made in house
Procedure: The reaction was started by the addition of 50 nM of PfENR.
The reaction was monitored at 340 nm and the formation of (NAD^+) was plotted as a function of time using equation 3 to get the dissociation constant by non-linear regression analysis of the data.
Progress curves gave the value of kobs and the k5 or association rate constants were determined by fitting the values of kobs with experimentally determined k6 values in equation 4.
The relationship between Ki, k5, k6 and kobs is described by equation 4.
The overall inhibition constant Ki* is calculated by equation 5.

[4] = biological target: T3, human aldose reductase (ALR2) (Homo sapiens, UniProt P15121); assay: Fluorescence quenching dissociation constants with aldose reductase; assay type: binding
T3 construct: hexa-His (cleaved yes); made in house; host or cells: E. coli BL-21(DE3)
Procedure: The cloning of human ALR2 gene was done as described before with slight modification. In brief, the open reading frame of the human AR2 gene (Accession GenBank/EMBL Data Bank number J05017) was amplified by the polymerase chain reaction from its cDNA and cloned into the T7 RNA polymerase-based vector pET28a(+) vector (Novagen). The positive clone was sequenced and then transformed into BL-21(DE3) cells for expression. The culture (5 L) was grown at 37° C. till OD600 of 0.8, induced by 1 mM IPTG and grown further at 37° C. for next 3 h. The cells were pelleted, sonicated and the clear supernatant was loaded to Ni-NTA resin. The purified hexa-His tagged human AR2 was subjected to thrombin cleavage and loaded […]. The His-tag cleaved AR2 was further loaded on DEAE Sephadex A-50 column (Pharmacia) and eluted with an NaCl gradient. The purity of the final enzyme preparation was checked on 12% SDS-PAGE.
Ki in all the four cased were calculated strictly using equations mentioned in Example 11.

[5] = biological target: T2, PfENR; assay type: binding; conditions: 1 μM [3H]EGCG
Procedure: Binding studies of [^3H] […] Briefly, for gel filtration chromatography, 2 ml Sephadex G-25 column was packed and equilibrated with the reaction buffer. For each run 50 μl of the reaction mixture was loaded and 20 fractions of 100 μl were collected at 0.25 ml/min flow rate. All the fractions were spotted on Whatman 3 filter paper and dried before taking the counts. In the filter binding assay method, the reaction mixtures were directly applied on the activated Polyvinylidene difluoride (PVDF) membrane fixed in a filtration assembly. The filters were washed with 200 μl of reaction buffer and dried. Dried filters were transferred to vials containing 5 ml scintillation fluid and the radioactivity measured using a Hewlett Packard liquid scintillation counter.
To check the binding of [^3H] […] The concentration of [^3H]
[^3H] […] (FIG. 4d) Double reciprocal plot of the same data is shown in the inset.
The binding constants for the above experiments were determined from saturation plots and by Scatchard plot or double reciprocal plot using equation 2a and 2b described under evaluation section.

[6] = biological target: T2, PfENR; assay type: binding; conditions: equation 7
Procedure: The excitation and emission monochromator slit widths were adjusted at 3 nm. All the reactions were performed in 3 ml quartz cuvette with constant stirring at 25° C. For the binding studies, 4 μM PfENR was incubated with different tea compounds at their saturating concentrations in 20 mM tris and 150 mM NaCl, pH 7.4, excited at 295 nm and change in the fluorescence intensity at the emission maximum of PfENR (340 nm) was recorded.
For tight binding inhibitors k6 can be considered negligible at the early onset of inhibition. So, k5 can be directly calculated from the following equation [13],
The samples were excited at 290 nm and the emission was recorded at 340 nm.
Before calculating Ki and k5 from fluorescence data, the corrections for inner filter effect were made using equation 8.

[7] = test system: fatty acid synthesis in P. falciparum cultures; assay: Incorporation of [14C] acetate into fatty acids in P. falciparum cultures; assay type: cell-based; conditions: Plasmodium falciparum
Procedure: Fatty acid synthesis in P. falciparum cultures and the effect of a 2′-dihydroxyphenyl ether indicated in formula 1 and 2 with or without flavonoid was evaluated by incorporating [14C] acetate into fatty acids [Surolia and Surolia Nature Medicine, (2001) 7, 167-173].

[8] = test system: E. coli O55:B5; assay: Survival of mice post bacterial infection; assay type: in vivo, E. coli in BALB/c mice; conditions: BALB/c mice, 10^7 CFU E. coli O55:B5, D-galactosamine primed; triclosan 40 mg/kg, EGCG 50 mg/kg
Procedure: Agents and Chemother. 12, 3859-3866 (2003) which is detailed below:—
Third group of animals received injections of both Triclosnan and ECGC as above. Controlled group was injected PBS and/or ethanol (500 μl).
For each experiment 6 BALB/c male mice, 6-9 week of age per group were used.
Infection of animals by bacteria: The animals were injected i.p or s.c with 0.4 ml of pyrogen free saline containing 10^7 CFU of bacteria (E. coli O55:B5) and primed with D-galactosamine (300 mg/kg of body weight); (Galanos at al. (1979) Proc. Natl. Acad. Sci. USA, 76, 5939-5943).
The mice was monitored for survival on an hourly basis.

[9] = test system: P. berghei; assay: Four day suppressive test, survival of P. berghei infected mice; assay type: in vivo, P. berghei in Balb/c mice; conditions: P. berghei infected Balb/c mice; triclosan 20 mg/kg, EGCG 30 mg/kg, 4 days
Procedure: Randomly bred male Balb/c mice, 6 in numbers, weighing 22-25 grams were inoculated intravenously with 10 million P. berghei parasitized red blood cells. […] Giemsa-stained blood smears for 5 days and thereafter was prepared from the infected animals to assess percentage parasitemia. The survival of the mice was monitored for the following week.

[10] = Ki in presence of TCL [nM], Ki of the catechin at 50 nM and 100 nM triclosan
[11] = Ki w.r.t. NADH [μM], competitive, NADH 50, 100, 200 μM, crotonoyl-CoA 200 μM
[12] = Ki w.r.t. crotonoyl-CoA [μM], uncompetitive, NADH 100 μM
[13] = Plasmodium falciparum, Erythrocyte, growth of malaria culture in red blood cells, read-out: IC50 on P. falciparum culture
[14] = binary complex, read-out: Ki with ALR2

Row | Molecule | IC50 [1] [nM] | Ki [1, 10] [nM] | Ki [1, 11] [nM] | Ki [1, 12] [nM] | IC50 [2, 13] [nM] | Association rate constant k5 of triclosan [3] | other results
1 | O=c1c(O)c(-c2ccc(O)c(O)c2)oc2cc(O)cc(O)c12 [Quercetin, quercetin] | 2500 ± 78 | 22 ± 0.85 | 1090 ± 89 | 473 ± 11 | 20700 | 3.1 ± 0.0786 [10^−3]s^−1 | 
2 | O=CC1CCCCC1 [1-Cyclohexylaldehyde] |  |  |  |  |  |  | Ki [4, 14]: 330000 ± 45000 nM; Ki ([4]; read-out: Ki value in the presence of quercetin, 2 μM quercetin preincubated): 14.1 ± 3.1 nM
3 | Oc1cc(Cl)ccc1Oc1ccc(Cl)cc1Cl [Triclosan, 5-chloro-2-(2,4-dichlorophenoxy)phenol] |  |  |  |  |  |  | Association constant of triclosan, double reciprocal plot [5]: 14 ± 0.77 µM⁻¹; Association constant of triclosan, saturation kinetics [5]: 22.18 ± 1.7 µM⁻¹; k5 of triclosan in presence of EGCG from slow decrease of fluorescence [6]: 0.0072±0.84×10^−5 s^−1; inhibition at 9 µM [7]: 90%; Survival Time [8]: 45 ± 6 h; Mice surviving from a group of 6 on Day 6 [9]: 3 ± 1; Mice surviving from a group of 6 on Day 12 [9]: 1 ± 1
4 | Oc1cc(O)c2c(c1)O[C@H](c1cc(O)c(O)c(O)c1)[C@H](O)C2 [EGC, (−) epigallocatechin] | 7000 ± 85 | 17.6 ± 0.67 | 3750 ± 54 | 2000 ± 78 | 211000 | 5.4 ± 0.097 [10^−3]s^−1 | 
5 | (−) epigallocatechin gallate [EGCG] |  |  |  |  |  |  | IC50 ([2]; growth of malaria culture in red blood cells, read-out: IC50 on P. falciparum culture): 191000 nM
6 | CCN(CC)CCCC(C)Nc1ccnc2cc(Cl)ccc12 (stereo not shown) [chloroquine, reference compound] |  |  |  |  |  |  | IC50 ([2]; Plasmodium falciparum, read-out: IC50 for chloroquine, strain MP-14): 300 nM; IC50 ([2]; Plasmodium falciparum, read-out: IC50 of chloroquine, strain FCK2): 18 nM
7 | O=C(O[C@@H]1Cc2c(O)cc(O)cc2O[C@@H]1c1ccc(O)c(O)c1)c1cc(O)c(O)c(O)c1 [ECG, (−) epicatechin gallate] | 500 ± 16 | 16 ± 0.45 | 291 ± 7.6 | 102 ± 4.6 |  | 6.3 ± 0.135 [10^−3]s^−1 | IC50 ([2]; Plasmodium falciparum, Erythrocyte, read-out: IC50 on P. falciparum culture): 4700 nM
8 | O=CC(O)CO (stereo not shown) [Glyceraldehyde, glyceraldehyde] |  |  |  |  |  |  | fold decrease of Kd of glyceraldehyde by quercetin ([4]; 2 μM quercetin): more than 10 fold; Kd ([4]; Kd of glyceraldehyde in the presence of quercetin, 2 μM quercetin): 40000 nM; Ki [4, 14]: 510000 ± 54000 nM; Kd ([4]; without quercetin, read-out: Kd of glyceraldehyde with aldose reductase): 510000 nM
9 | O=C(/C=C/c1ccc(O)c(O)c1)c1ccc(O)cc1O [Buteine, butein] | 12500 ± 670 | 14 ± 0.57 | 5500 ± 100 | 2970 ± 77 | 49700 | 2.1 ± 0.108 [10^−3]s^−1 | 
